Key:
Assay type in all cases: cell-based
HEL92.1.7 = assay: Cell growth inhibition assay, blood cancer cell line HEL92.1.7; details: Homo sapiens, HEL 92.1.7, HEL92.1.7 blood cancer cell line
Summary of the method: (§1)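 Cells were seeded at 3,000/well (HCT116, DU-145) or 5,000/well (SW626 and the others) and exposed to serial compound dilutions for 72 to 96 h at 37 °C under 5% CO2. Viability was read as CellTiter-Glo luminescence against 0.1% DMSO and cell-free wells.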

LNCaP = assay: Cell growth inhibition assay, prostate cancer cell line LNCaP (medium with 10 ng/mL IL-6); details: Homo sapiens, medium supplemented with 10 ng/mL of IL-6, 10,000 cells/well
DU-145 = assay: Cell growth inhibition assay, prostate cancer cell line DU-145; details: Homo sapiens, DU-145 prostate cancer cell line
Summary of the method: as §1

MDA-MB-231 = assay: Cell growth inhibition assay, breast cancer cell line MDA-MB-231; details: Homo sapiens; MDA-MB-231 breast cancer cell line, 5,000 cells/well
STAT3 = biological target: T1, STAT3 (Homo sapiens, UniProt P40763); assay: STAT3 reporter gene assay (luciferase), LNCaP stable cell line (pSTAT3-TA-luc), IL-6 stimulation
T1 construct: plasmid pSTAT3-TA-luc), which contains a stably operating STAT3 promoter; endogenous in cells
T1 sequence (P40763 whole entry): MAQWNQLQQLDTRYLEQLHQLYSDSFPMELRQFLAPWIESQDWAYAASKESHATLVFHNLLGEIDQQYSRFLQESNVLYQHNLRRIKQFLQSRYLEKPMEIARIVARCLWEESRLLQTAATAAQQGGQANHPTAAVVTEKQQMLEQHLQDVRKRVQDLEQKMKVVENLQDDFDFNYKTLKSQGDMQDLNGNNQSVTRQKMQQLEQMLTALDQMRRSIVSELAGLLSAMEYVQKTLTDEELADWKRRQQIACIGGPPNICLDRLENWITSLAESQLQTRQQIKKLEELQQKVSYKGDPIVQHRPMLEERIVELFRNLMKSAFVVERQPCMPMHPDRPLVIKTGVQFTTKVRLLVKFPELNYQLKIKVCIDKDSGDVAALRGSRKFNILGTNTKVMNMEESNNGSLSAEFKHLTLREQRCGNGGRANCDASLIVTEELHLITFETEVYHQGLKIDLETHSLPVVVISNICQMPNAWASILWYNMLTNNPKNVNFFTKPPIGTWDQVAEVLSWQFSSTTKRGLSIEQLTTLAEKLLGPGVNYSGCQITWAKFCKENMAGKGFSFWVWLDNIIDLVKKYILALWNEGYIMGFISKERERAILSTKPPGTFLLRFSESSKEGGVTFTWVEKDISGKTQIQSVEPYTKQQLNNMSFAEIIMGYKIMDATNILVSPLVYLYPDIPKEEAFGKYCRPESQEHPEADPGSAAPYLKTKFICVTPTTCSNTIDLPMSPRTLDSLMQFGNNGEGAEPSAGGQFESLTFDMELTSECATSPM
Summary of the method: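 LNCaP cells stably carrying pSTAT3-TA-luc, in RPMI1640 with 3% DCC-FBS, were treated with compound and then stimulated with 10 ng/mL IL-6 for 24–48 h at 37 °C. Luciferase activity was measured in lysates. A parallel plate measured viability by CellTiter-Glo, with stimulated 0.1% DMSO wells as the positive control.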

| Structure (SMILES) | IC50 (HEL92.1.7) [µM] | IC50 (LNCaP) [µM] | IC50 (DU-145) [µM] | IC50 (MDA-MB-231) [µM] | IC50 (STAT3) [µM] |
| --- | --- | --- | --- | --- | --- |
| CS(=O)(=O)Nc1ccc2sc(C(=O)Nc3cc(Br)cc(-c4ccc(F)cc4F)c3)cc2c1 [Example 305, N-(5-bromo-2′,4′-difluoro-[1,1′-biphenyl]-3-yl)-5-(methylsulfonamido)benzo[b]thiophene-2-carboxamide] | 0.24 | 0.072 | 0.03 | 0.001 | 0.067 |
| CC(C)(c1cc(Br)cc(NC(=O)c2cc3cc(NS(C)(=O)=O)ccc3s2)c1)c1ccc(F)cc1F [Example 35, N-(3-bromo-5-(2-(2,4-difluorophenyl)propan-2-yl)phenyl)-5-(methylsulfonamido)benzo[b]thiophene-2-carboxamide] | 0.28 | 0.067 | 0.06 | 0.027 | 0.076 |
| CN(c1ccc2cc(C(=O)Nc3cccc(-c4ccc(F)cc4F)c3)[nH]c2c1)S(C)(=O)=O [Example 344, N-(2′,4′-difluoro-[1,1′-biphenyl]-3-yl)-6-(N-methylmethylsulfonamido)-1H-indole-2-carboxamide] | 0.49 | 0.014 |  | 0.1 | 0.15 |
| CC(C)(c1ccc(Cl)cc1)c1cc(Cl)cc(NC(=O)c2cc3cc(NS(C)(=O)=O)ccc3s2)c1 [Example 158, N-(3-chloro-5-(2-(4-chlorophenyl)propan-2-yl)phenyl)-5-(methylsulfonamido)benzo[b]thiophene-2-carboxamide] | 0.22 | 0.056 | 0.048 |  | 0.12 |
| CS(=O)(=O)Nc1ccc2sc(C(=O)Nc3cc(Cl)cc(Nc4ccc(F)cc4F)c3)cc2c1 [Example 438, N-(3-chloro-5-((2,4-difluorophenyl)amino)phenyl)-5-(methylsulfonamido)benzo[b]thiophene-2-carboxamide] | 0.48 | 0.42 | 0.16 |  | 0.2 |
| CC(C)Oc1cc(OC(F)(F)F)cc(C(C)(C)c2cc(Cl)cc(NC(=O)c3cc4cc(NS(=O)(=O)C5CCS(=O)(=O)CC5)ccc4s3)c2)c1 [Example 205, N-(3-chloro-5-(2-(3-isopropoxy-5-(trifluoromethoxy)phenyl)propan-2-yl)phenyl)-5-((1,1-dioxidotetrahydro-2H-thiopyran)-4-sulfonamido)benzo[b]thiophene-2-carboxamide] | 0.58 | 0.31 | 0.063 |  | 0.3 |
| CS(=O)(=O)Nc1ccc2cc(C(=O)Nc3cccc(-c4ccc(F)cc4F)c3)[nH]c2c1 [Example 270, N-(2′,4′-difluoro-[1,1′-biphenyl]-3-yl)-6-(methylsulfonamido)-1H-indole-2-carboxamide] | 1.7 | 1.01 |  | 0.7 | 0.38 |
| CC(C)Oc1cc(OC(F)(F)F)cc(C(C)(C)c2cc(Cl)cc(N(CCN3CCOCC3)C(=O)c3cc4cc(N(CCN5CCOCC5)S(C)(=O)=O)c(F)cc4s3)c2)c1 [Example 218, N-(3-chloro-5-(2-(3-isopropoxy-5-(trifluoromethoxy)phenyl)propan-2-yl)phenyl)-6-fluoro-N-(2-morpholinoethyl)-5-(N-(2-morpholinoethyl)methylsulfonamido)benzo[b]thiophene-2-carboxamide] | > 1.1 | 7.7 | > 1.1 |  | > 10 |
| CC(C)Oc1cc(N2CCCC2)cc(C(C)(C)c2cc(Cl)cc(NC(=O)c3cc4cc(NS(C)(=O)=O)ccc4s3)c2)c1 [Example 146, N-(3-chloro-5-(2-(3-isopropoxy-5-(pyrrolidin-1-yl)phenyl)propan-2-yl)phenyl)-5-(methylsulfonamido)benzo[b]thiophene-2-carboxamide] | 0.32 | 0.022 | 0.019 |  | 0.073 |
| CC(C)(c1cc(Cl)cc(NC(=O)c2cc3cc(NS(C)(=O)=O)ccc3s2)c1)c1cc(OC2CCNCC2)cc(OC(F)(F)F)c1 [Example 96, N-(3-chloro-5-(2-(3-(piperidin-4-yloxy)-5-(trifluoromethoxy)phenyl)propan-2-yl)phenyl)-5-(methylsulfonamido)benzo[b]thiophene-2-carboxamide] | > 1.1 | > 1.1 | > 1.1 |  | 3.4 |
| CC(C)(c1cc(Cl)cc(NC(=O)c2cc3cc(NS(C)(=O)=O)ccc3s2)c1)n1ncccc1=O [Example 190, N-(3-chloro-5-(2-(6-oxopyridazin-1(6H)-yl)propan-2-yl)phenyl)-5-(methylsulfonamido)benzo[b]thiophene-2-carboxamide] | > 1.1 | > 1.1 | > 1.1 |  | 2.37 |
| COc1cc(OC(F)(F)F)cc(C(C)(C)c2cc(NC(=O)c3cc4cc(NS(C)(=O)=O)ccc4s3)cc(Cl)n2)c1 [Example 149, N-(2-chloro-6-(2-(3-methoxy-5-(trifluoromethoxy)phenyl)propan-2-yl)pyridin-4-yl)-5-(methylsulfonamido)benzo[b]thiophene-2-carboxamide] | 0.14 | 0.05 | 0.03 |  | 0.07 |
| Cn1ccc(C(C)(C)c2cc(Cl)cc(NC(=O)c3cc4cc(NS(C)(=O)=O)ccc4s3)c2)c1 [Example 168, N-(3-chloro-5-(2-(1-methyl-1H-pyrrol-3-yl)propan-2-yl)phenyl)-5-(methylsulfonamido)benzo[b]thiophene-2-carboxamide] | 0.39 | 0.096 | 0.13 |  | 0.13 |
| CS(=O)(=O)Nc1ccc2sc(C(=O)Nc3cc(Br)cc(S(=O)(=O)N4CCc5ccc(F)cc5C4)c3)cc2c1 [Example 418, N-(3-bromo-5-((7-fluoro-3,4-dihydroisoquinolin-2(1H)-yl)sulfonyl)phenyl)-5-(methylsulfonamido)benzo[b]thiophene-2-carboxamide] | 2.2 | 1.6 | 0.98 |  | 0.84 |
| CSc1ccc(C(C)(C)c2cc(Cl)cc(NC(=O)c3cc4cc(NS(C)(=O)=O)ccc4s3)c2)cc1 [Example 157, N-(3-chloro-5-(2-(4-(methylthio)phenyl)propan-2-yl)phenyl)-5-(methylsulfonamido)benzo[b]thiophene-2-carboxamide] | 0.23 | 0.079 | 0.06 |  | 0.063 |

Compounds with a lower IC50 (HEL92.1.7), results first:

| IC50 (HEL92.1.7) [µM] | IC50 (LNCaP) [µM] | IC50 (DU-145) [µM] | IC50 (MDA-MB-231) [µM] | IC50 (STAT3) [µM] | Structure (SMILES) |
| --- | --- | --- | --- | --- | --- |
| 0.029 | 0.035 | 0.007 |  | 0.011 | COCCS(=O)(=O)Nc1ccc2sc(C(=O)Nc3cc(Cl)cc(C(C)(C)c4cc(OC(C)C)cc(OC(F)(F)F)c4)c3)cc2c1 [Example 195, N-(3-chloro-5-(2-(3-isopropoxy-5-(trifluoromethoxy)phenyl)propan-2-yl)phenyl)-5-((2-methoxyethyl)sulfonamido)benzo[b]thiophene-2-carboxamide] |
| 0.009 | 0.008 | 0.004 |  | 0.01 | CN(c1cc2cc(C(=O)Nc3cc(Cl)cc(-c4ccc(F)cc4F)c3)sc2cc1F)S(C)(=O)=O [Example 329, N-(5-chloro-2′,4′-difluoro-[1,1′-biphenyl]-3-yl)-6-fluoro-5-(N-methylmethylsulfonamido)benzo[b]thiophene-2-carboxamide] |
| 0.11 | 0.1 | 0.043 |  | 0.065 | CC(C)(c1ccccc1)c1cc(Cl)cc(NC(=O)c2cc3cc(NS(C)(=O)=O)ccc3s2)c1 [Example 64, N-(3-chloro-5-(2-phenylpropan-2-yl)phenyl)-5-(methylsulfonamido)benzo[b]thiophene-2-carboxamide] |
| 0.12 | 0.084 | 0.022 |  | 0.02 | CC(C)Oc1cc(OC(F)(F)F)cc(C(C)(C)c2cc(Cl)cc(NC(=O)c3cc4cc(NS(=O)(=O)CC5CCOC5)ccc4s3)c2)c1 (stereo not drawn) [Example 196, N-(3-chloro-5-(2-(3-isopropoxy-5-(trifluoromethoxy)phenyl)propan-2-yl)phenyl)-5-(((tetrahydrofuran-3-yl)methyl)sulfonamido)benzo[b]thiophene-2-carboxamide] |
| 0.031 | 0.016 | 0.008 |  | 0.014 | COc1cc(OC(F)(F)F)cc(C(C)(C)c2cc(Cl)cc(NC(=O)c3cc4cc(NS(C)(=O)=O)ccc4s3)n2)c1 [Example 150, N-(4-chloro-6-(2-(3-methoxy-5-(trifluoromethoxy)phenyl)propan-2-yl)pyridin-2-yl)-5-(methylsulfonamido)benzo[b]thiophene-2-carboxamide] |
| 0.007 | 0.006 | 0.002 |  | 0.002 | CC(C)Oc1cc(OC(F)(F)F)cc(C(C)(C)c2cc(Cl)cc(NC(=O)c3cc4cc(N(C)S(C)(=O)=O)c(F)cc4s3)c2)c1 [Example 215, N-(3-chloro-5-(2-(3-isopropoxy-5-(trifluoromethoxy)phenyl)propan-2-yl)phenyl)-6-fluoro-5-(N-methylmethylsulfonamido)benzo[b]thiophene-2-carboxamide] |
| 0.12 | 0.055 | 0.021 |  | 0.091 | CC(C)Oc1cc(OC(F)(F)F)cc(C(C)(C)c2cc(Cl)cc(NC(=O)c3cc4c(F)c(NS(C)(=O)=O)ccc4s3)c2)c1 [Example 93, N-(3-chloro-5-(2-(3-isopropoxy-5-(trifluoromethoxy)phenyl)propan-2-yl)phenyl)-4-fluoro-5-(methylsulfonamido)benzo[b]thiophene-2-carboxamide] |

— patent US10562912B2 (C&C Research Laboratories, priority 2013, dated 2020)
